From PubChem BioAssay (NCI)
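Following 48 hours of exposure in 96-well plates, responses at five concentrations were used to interpolate endpoints linearly. At the GI50, growth is halved. TGI marks complete inhibition of growth.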

Experiments:
Experiment in all cases: inhibition of tumour cell growth, NCI panel, 48 h
A498 renal = test system: A498 renal
T-47D breast = test system: T-47D breast
MOLT-4 leukemia = test system: MOLT-4 leukemia
OVCAR-8 ovarian = test system: OVCAR-8 ovarian
SK-MEL-28 melanoma = test system: SK-MEL-28 melanoma
HT29 colon = test system: HT29 colon
OVCAR-4 ovarian = test system: OVCAR-4 ovarian
NCI-H226 lung = test system: NCI-H226 lung
OVCAR-5 ovarian = test system: OVCAR-5 ovarian
UACC-62 melanoma = test system: UACC-62 melanoma

Compound	GI50 (A498 renal)	TGI (A498 renal)	GI50 (T-47D breast)	TGI (T-47D breast)	GI50 (MOLT-4 leukemia)	TGI (MOLT-4 leukemia)	GI50 (OVCAR-8 ovarian)	TGI (OVCAR-8 ovarian)	GI50 (SK-MEL-28 melanoma)	TGI (SK-MEL-28 melanoma)	GI50 (HT29 colon)	TGI (HT29 colon)	GI50 (OVCAR-4 ovarian)	TGI (OVCAR-4 ovarian)	GI50 (NCI-H226 lung)	TGI (NCI-H226 lung)	GI50 (OVCAR-5 ovarian)	TGI (OVCAR-5 ovarian)	GI50 (UACC-62 melanoma)	TGI (UACC-62 melanoma)
Nc1cc(-c2ccccc2)ccc1O	22.7 µM	> 100 µM	55.3 µM	> 100 µM	51.9 µM	> 100 µM	> 100 µM	> 100 µM	> 100 µM	> 100 µM	> 100 µM	> 100 µM	36.5 µM	> 100 µM	> 100 µM	> 100 µM	> 100 µM	> 100 µM	37.3 µM	> 100 µM
Cn1c(=O)cc2c3c(c(NCCCO)ccc31)C(=O)c1ccccc1-2	1.77 µM	> 100 µM	13 µM	> 100 µM	2.07 µM	> 100 µM	1.48 µM	> 100 µM	38 µM	> 100 µM	2.16 µM	> 100 µM	7.89 µM	> 100 µM	3.01 µM	> 100 µM	32.8 µM	> 100 µM	2.45 µM	> 100 µM
N#Cc1ccccc1C#C/C=C\C#Cc1ccc(OCCCNC(=O)c2cc3ccccc3[nH]2)cc1	16.1 µM	36.5 µM	12.4 µM	29.7 µM	5.23 µM	23.4 µM	16.2 µM	36.9 µM	32 µM	> 100 µM	30.9 µM	> 100 µM	59 µM	> 100 µM	13.8 µM	31.9 µM	21.3 µM	48.4 µM	13.7 µM	28.4 µM
O=C1Nc2ccccc2C1Cc1ccccc1 (stereo not drawn)	–	> 100 µM	–	> 100 µM	–	> 100 µM	–	> 100 µM	–	> 100 µM	–	> 100 µM	–	> 100 µM	–	> 100 µM	–	> 100 µM	–	> 100 µM
COCCOC(=O)C1=C(C)NC2=C(C(=O)CC(c3ccccc3OC)C2)C1c1cccc(O)c1 (stereo not drawn)	10.2 µM	25.9 µM	5.99 µM	54.3 µM	22 µM	> 77.6 µM	11.3 µM	34.9 µM	12.6 µM	50.6 µM	5.38 µM	25.3 µM	8.98 µM	> 80.5 µM	8.64 µM	35.7 µM	23.3 µM	> 100 µM	4.51 µM	29.3 µM
CN1C(=O)CNC(=O)[C@H](NC(=O)c2nc3ccccc3cc2O)CSSC[C@H]1C(=O)NCCc1nc2ccccc2cc1O	> 100 µM	> 100 µM	8.09 µM	29.7 µM	1.4 µM	14.8 µM	20.8 µM	53.9 µM	8.07 µM	35 µM	3.12 µM	16.4 µM	25 µM	> 73.1 µM	17.3 µM	65.2 µM	24.9 µM	62.1 µM	7.64 µM	38.6 µM
CCN(CC)c1ccc2c(c1)Oc1nc(N)c(C#N)c(N)c1C2Sc1ccc(SC)cc1 (stereo not drawn)	1.88 µM	3.44 µM	1.74 µM	3.94 µM	1.33 µM	4.6 µM	2.08 µM	4.43 µM	2.05 µM	3.91 µM	2.33 µM	4.61 µM	1.75 µM	3.4 µM	1.53 µM	2.89 µM	2.37 µM	4.75 µM	1.48 µM	2.96 µM
CC(=O)OC1COC(S[As](C)C)C(OC(C)=O)C1OC(C)=O (stereo not drawn)	0.285 µM	1.56 µM	2.67 µM	19.9 µM	0.0152 µM	0.0672 µM	0.735 µM	5.31 µM	0.666 µM	8.89 µM	0.558 µM	> 100 µM	2.53 µM	24 µM	1.47 µM	7.9 µM	0.226 µM	1.8 µM	0.285 µM	1.61 µM
CCN(CC)CCOc1ccc(/C=C2\CC3C4CCC5=CC(=O)CC[C@]5(C)C4CC[C@]3(C)C2=O)cc1OC (stereo partly drawn)	1.99 µM	8.48 µM	3.14 µM	17.1 µM	5.78 µM	> 100 µM	4.09 µM	18.2 µM	2.29 µM	5.67 µM	1.3 µM	> 100 µM	10.6 µM	> 100 µM	2.03 µM	6.51 µM	3.6 µM	17.4 µM	2.01 µM	4.13 µM
CCc1c2c(nc3cc4c(cc13)OCO4)-c1cc3c(c(=O)n1C2)COC(=O)[C@@]3(CC)OC(=O)CN	< 0.0107 µM	0.166 µM	< 0.01 µM	0.512 µM	< 0.01 µM	< 0.01 µM	< 0.01 µM	0.131 µM	0.101 µM	–	< 0.01 µM	3.83 µM	0.0244 µM	0.711 µM	< 0.01 µM	< 0.01 µM	< 0.01 µM	0.417 µM	< 0.022 µM	–
